Measured values: patent US12643867B2, “Compositions and uses thereof” (University of Virginia Patent Foundation, priority 2017, dated 2026)

Assays:
[1] = molecular target: T1, DGKQ (Diacylglycerol kinase theta) (Homo sapiens, UniProt P52824); assay: SILAC LC-MS ATP acyl phosphate probe competition, recombinant DGK-HEK293T lysates; assay type: binding; details: ATP 1 mM, Ketanserin, Ritanserin 100 μM, RF001 1 mM; for SILAC ratio, DGKQ C1 probe-modified peptide: site C1 (K202); for SILAC ratio, DGKQ DAGKa probe-modified peptide: site DAGKa (K768); for SILAC ratio, DGKQ DAGKc probe-modified peptide: site DAGKc (K596)
T1 construct: expressed in transfected cells; host or cells: SILAC HEK293T
T1 sequence (P52824 1-942): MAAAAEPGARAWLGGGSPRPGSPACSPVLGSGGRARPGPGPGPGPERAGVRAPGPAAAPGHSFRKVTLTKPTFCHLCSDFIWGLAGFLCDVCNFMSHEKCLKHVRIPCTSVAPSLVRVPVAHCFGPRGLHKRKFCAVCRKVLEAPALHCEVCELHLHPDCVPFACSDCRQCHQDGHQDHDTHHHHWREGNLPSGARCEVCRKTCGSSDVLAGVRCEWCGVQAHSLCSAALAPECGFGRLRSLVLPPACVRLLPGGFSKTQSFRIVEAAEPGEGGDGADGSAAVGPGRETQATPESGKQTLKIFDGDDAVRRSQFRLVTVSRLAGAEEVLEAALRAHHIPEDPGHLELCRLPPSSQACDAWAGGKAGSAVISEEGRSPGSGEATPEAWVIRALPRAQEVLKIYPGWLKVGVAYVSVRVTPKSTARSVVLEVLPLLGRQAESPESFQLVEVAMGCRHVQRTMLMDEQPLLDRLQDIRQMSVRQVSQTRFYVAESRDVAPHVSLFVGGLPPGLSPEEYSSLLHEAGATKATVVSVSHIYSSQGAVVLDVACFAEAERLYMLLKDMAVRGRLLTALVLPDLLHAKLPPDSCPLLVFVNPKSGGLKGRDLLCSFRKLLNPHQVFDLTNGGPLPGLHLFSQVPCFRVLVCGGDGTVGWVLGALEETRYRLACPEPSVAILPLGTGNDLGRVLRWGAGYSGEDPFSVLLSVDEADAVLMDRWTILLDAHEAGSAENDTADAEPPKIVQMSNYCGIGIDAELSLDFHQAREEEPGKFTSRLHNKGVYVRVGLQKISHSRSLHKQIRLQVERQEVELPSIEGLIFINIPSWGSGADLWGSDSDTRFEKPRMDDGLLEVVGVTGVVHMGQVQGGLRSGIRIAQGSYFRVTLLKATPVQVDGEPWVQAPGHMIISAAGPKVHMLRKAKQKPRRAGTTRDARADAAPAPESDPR
From the text: (§1) Recombinant DGK proteins were produced by transient transfection of HEK293T cells with recombinant DNA. pDONR223-DGKK was a gift from William Hahn & David Root (Addgene plasmid #23487). pCSF107mT-GATEWAY-3′-FLAG was a gift from Todd Stukenberg (Addgene plasmid #67619). pCSF107mT-DGKK-FLAG construct was generated by recombination of the Addgene plasmids using the Gateway cloning system (Invitrogen). All other vectors were gifted to Dr. Kevin Lynch (University of Virginia, School of Medicine) by Dr. Kaoru Goto (Yamagata University, School of Medicine) and Dr. Fumio Sakane (Chiba University) and were kindly shared with us: pcDNA3-FLAG-DGKA (rat), pCMV-Tag2B-FLAG-DGKQ (human), pcDNA3-DGKE-3×Flag (human), and pCMV-SPORT6-HA-DGKZ (human). HEK293T cells were plated at a concentration of 400,000 cells in complete DMEM and grown to 50-60% confluency. A polyethyleneimine (PEI) stock solution was prepared (1 mg/mL, pH 7.4) and filter sterilized. Serum-free DMEM (600 μL) was mixed gently with 2.6 μg DNA and 20 μL of sterile PEI (1 mg/mL, pH 7.4) in a sterile microfuge tube. Mixtures were incubated for 30 min at 25° C. The mixture was then added drop-wise to each 10 cm^2 plate, rocked back and forth to mix, and placed back in the incubator. Cell pellets were harvested after two full days of growth, snap-frozen in liquid N2, and stored at −80° C. until use. Recombinant proteins were produced by transient transfection in SILAC HEK293T cells using the procedure described above, except that cells were plated at a concentration of 1×10^6 cells per 10 cm^2 plate and grown to ˜70% confluency prior to introducing transfection mixture.
(§2) Proteomes were diluted to 2 mg/ml in kinase buffer. The light and heavy proteomes (0.5 mg, 250 μL total reaction volume) were pre-treated with vehicle or compound, respectively (5 μL, DMSO (light) or 50× stock in DMSO (heavy)), mixed gently, and incubated at 25° C. for 30 min. […] After incubation, matched light and heavy proteomes were transferred and mixed in a 1:1 ratio in a two-dram vial containing 4:1:3 MeOH/CHCl3/H2O (2 mL MeOH, 500 AL CHCl3, 1.5 mL H2O) for extraction of proteins to remove excess probe, quickly vortexed, and centrifuged at 1,400×g for 3 min to pellet protein. Organic and aqueous layers were removed using a Pasteur pipette, and the protein pellet was transferred to a screw-top tube in 600 μL MeOH. A second extraction was performed by adding CHCl3 (150 μL) and H2O (600 μL) to each sample, vortexed, and centrifuged at 1,400×g for 3 min to pellet protein. Organic and aqueous layers were removed by pipetting. MeOH added to pellet (600 μL) and pellets were re-suspended by sonication (3×1 sec pulse, 20% amplitude) for a final extraction. Samples were then centrifuged at 17,000×g for 5 min to pellet protein and MeOH was removed by pipetting. The pellets were re-suspended in 10 M urea/25 mM ammonium bicarbonate ([…]), brought to a final volume of 1 mL with 25 mM ammonium bicarbonate, reduced with 10 mM DTT for 15 min at 65° C. allowed to cool, and then alkylated with 40 mM iodoacetamide for 30 min at 25° C. in the dark. To desalt the samples, each was transferred to a two-dram glass vial, and to the vial 4:1:2 MeOH/CHCl3/H2O (2 mL MeOH, 500 AL CHCl3, 1 mL H2O) was added. The vials were vortexed quickly, spun at 1.400×g for 3 min to pellet protein, and aqueous and organic layers were removed using a Pasteur pipette. The resulting protein pellet was transferred to a screw-top tube in 600 μL MeOH, and then CHCl3 (150 μL) and HO (600 μL) were added to extract protein a second time. The samples were vortexed quickly, centrifuged at 1,400×g to pellet protein, and the aqueous and organic layers were removed by pipetting. Resulting protein pellet was suspended in MeOH (600 μL) via sonication (3×1 sec pulse, 20% amplitude), centrifuged at 17,000×g for 5 min to pellet protein, and MeOH removed by pipetting. […]

[2] = molecular target: T2, DGKZ (Diacylglycerol kinase zeta) (Homo sapiens, UniProt Q13574); assay: as above; assay type: binding; details: ATP 1 mM, Ketanserin, Ritanserin 100 μM, RF001 1 mM; for SILAC ratio, DGKZ C1 probe-modified peptide: site C1 (K323); for SILAC ratio, DGKZ DAGKa probe-modified peptide: site DAGKa (K662); for SILAC ratio, DGKZ DAGKc probe-modified peptide: site DAGKc (K500)
T2 construct: expressed in transfected cells; host or cells: SILAC HEK293T
T2 sequence (Q13574 whole entry): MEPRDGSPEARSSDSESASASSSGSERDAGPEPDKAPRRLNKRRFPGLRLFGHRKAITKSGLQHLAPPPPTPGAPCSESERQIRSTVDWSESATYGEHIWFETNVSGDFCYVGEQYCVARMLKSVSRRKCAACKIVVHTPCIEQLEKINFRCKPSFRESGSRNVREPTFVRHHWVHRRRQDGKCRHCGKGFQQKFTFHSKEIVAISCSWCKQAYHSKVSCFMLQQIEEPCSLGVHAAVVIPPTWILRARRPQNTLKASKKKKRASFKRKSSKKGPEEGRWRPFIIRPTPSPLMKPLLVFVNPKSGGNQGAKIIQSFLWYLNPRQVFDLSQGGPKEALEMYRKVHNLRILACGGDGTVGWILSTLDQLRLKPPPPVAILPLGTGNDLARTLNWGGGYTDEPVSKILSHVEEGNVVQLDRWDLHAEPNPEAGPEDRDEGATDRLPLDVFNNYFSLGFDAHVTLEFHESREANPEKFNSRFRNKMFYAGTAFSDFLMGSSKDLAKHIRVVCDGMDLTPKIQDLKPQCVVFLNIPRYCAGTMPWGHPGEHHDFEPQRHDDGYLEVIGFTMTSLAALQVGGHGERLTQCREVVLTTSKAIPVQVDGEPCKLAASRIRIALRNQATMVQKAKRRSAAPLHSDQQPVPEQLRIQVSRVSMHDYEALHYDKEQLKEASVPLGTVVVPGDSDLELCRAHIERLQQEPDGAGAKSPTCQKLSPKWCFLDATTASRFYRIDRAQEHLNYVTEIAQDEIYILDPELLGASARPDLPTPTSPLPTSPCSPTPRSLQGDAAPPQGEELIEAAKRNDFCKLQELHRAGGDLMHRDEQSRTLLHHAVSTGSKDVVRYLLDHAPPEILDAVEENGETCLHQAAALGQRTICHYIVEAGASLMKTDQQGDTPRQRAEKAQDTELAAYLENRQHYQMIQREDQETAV
From the text: as §1, §2

| Structure (SMILES) | SILAC ratio, DGKQ C1 probe-modified peptide [1] | SILAC ratio, DGKQ DAGKa probe-modified peptide [1] | SILAC ratio, DGKQ DAGKc probe-modified peptide [1] | SILAC ratio, DGKZ C1 probe-modified peptide [2] | SILAC ratio, DGKZ DAGKa probe-modified peptide [2] | SILAC ratio, DGKZ DAGKc probe-modified peptide [2] |
| --- | --- | --- | --- | --- | --- | --- |
| Cc1nc2sccn2c(=O)c1CCN1CCC(=C(c2ccc(F)cc2)c2ccc(F)cc2)CC1 [Ritanserin] | 1.3 | 1.4 | 1.1 | 1.4 | 1.8 | 1.2 |
| Fc1ccc(C(=C2CCNCC2)c2ccc(F)cc2)cc1 [RF001, 4-(Bis(4-fluorophenyl)methylene) piperidine] | 0.7 | 1.2 | 0.9 | 1.1 | 1.1 | 0.9 |
| O=C(c1ccc(F)cc1)C1CCN(CCn2c(=O)[nH]c3ccccc3c2=O)CC1 [Ketanserin] | 0.9 | 1.1 | 1.2 | 1.3 | 1.4 | 1.5 |
